Source: patent US12264173B2 (GILEAD SCIENCES, INC., priority 2020, dated 2025)
Like-named read-outs stand apart in the source and are kept apart here.

Key:
Assay type in all cases: cell-based
[1] = tested on: RSV strain A2; experiment: microbe, parasite or virus in culture; settings: Table 3, HEp-2 cells, RSV A2, 4 days, read-out: RSV HEp-2 EC50
Outline: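 Cytopathic-effect protection assay: HEp-2 cells (50,000/mL) infected with pre-titered RSV A2 onto 3-fold serial compound dilutions, incubated 4 days at 37° C. Cell viability read by CellTiter-Glo luminescence; percent inhibition derived against 0% and 100% virus-inhibition controls.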

[2] = tested on: DENV2 replicon; experiment: DENV-2 Huh-7 Rep EC50 (replicon luminescence)
Outline: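 EC50 derived from luminescence dose-response, normalised to DMSO-only 0% inhibition wells, after 1.5 h with EnduRen substrate. Compounds were first exposed for 48 h at 37° C to DENV2 replicon Huh-7 cells (5,000/well).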

[3] = tested on: HCV Rep 2A; experiment: HCV Rep 2A EC50 (replicon luciferase)
Experimental: (§1) Compounds were serially diluted in ten steps of 1:3 dilutions in 384-well plates. All serial dilutions were performed in four replicates per compound within the same 384-well plate. […] To each well of a black polystyrene 384-well plate (Greiner Bio-one, Monroe, NC), 90 μL of cell culture medium (without Geneticin) containing 2000 suspended HCV replicon cells was added with a Biotek μFlow workstation. For compound transfer into cell culture plates, 0.4 μL of compound solution from the compound serial dilution plate was transferred to the cell culture plate on a Biomek FX workstation. The DMSO concentration in the final assay wells was 0.44%. The plates were incubated for 3 days at 37° C. with 5% CO2 and 85% humidity. The HCV replicon assay was a multiplex assay, able to assess both cytotoxicity and antireplicon activity from the same well. The CC50 assay was performed first. The media in the 384-well cell culture plate was aspirated, and the wells were washed four times with 100 μL of PBS each, using a Biotek ELX405 plate washer. A volume of 50 μL of a solution containing 400 nM calcein AM (Anaspec, Fremont, CA) in 1×PBS was added to each well of the plate with a Biotek μFlow workstation. The plate was incubated for 30 min at room temperature before the fluorescence signal (excitation 490 nm, emission 520 nm) was measured with a Perkin-Elmer Envision plate reader. The EC50 assay was performed in the same wells as the CC50 assay. The calcein-PBS solution in the 384-well cell culture plate was aspirated with a Biotek ELX405 plate washer. A volume of 20 μL of Dual-Glo luciferase buffer (Promega, Madison, WI) was added to each well of the plate with a Biotek μFlow Workstation. The plate was incubated for 10 min at room temperature. A volume of 20 μL of a solution containing a 1:100 mixture of Dual-Glo Stop & Glo substrate (Promega, Madison, WI) and Dual-Glo Stop & Glo buffer (Promega, Madison, WI) was added to each well of the plate with a Biotek μFlow Workstation. The plate was then incubated at room temperature for 10 min before the luminescence signal was measured with a Perkin-Elmer Envision Plate Reader.

[4] = tested on: HCV Rep 1B; experiment: HCV Rep 1B EC50 (replicon luciferase)
Experimental: as §1

[5] = tested on: RSV A2; experiment: RSV NHBE EC50 (RSV A2 antiviral assay in NHBE cells); settings: read-out: RSV NHBE EC50
Outline: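 Step 1: seed NHBE cells (7,500/well, BEGM) overnight. Step 2: add 3-fold diluted compound, DMSO 0.05%. Step 3: infect with RSV A2, 1×10^4.5 TCID/mL; incubate 4 days, 37° C. Step 4: CellTiter-Glo luminescence.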

[6] = tested on: HRV16; experiment: HRV16 HeLa EC50 (cytopathic effect in H1-HeLa cells); settings: read-out: HRV16 HeLa EC50
Outline: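 Read-out is luminescent cell viability (CellTiter-Glo) after 96 h of infection at 33 °C, scaled between uninfected and infected-untreated wells. Before infection with titrated virus, compounds went onto H1-HeLa cells as triplicate 3-fold dilution series.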

[7] = tested on: Dengue serotype 2 New Guinea C (NGC) strain; experiment: DENV-2 Huh-7 EC50 (qPCR in Huh7 cells)
Experimental: Huh7 (Human hepatocarcinoma 7) cells were maintained in 10% FCS-containing DMEM complete media. On the day of the assay, cells were trypsinized (0.1% Trypsin-EDTA), washed and infected for 2 hours in serum-free DMEM with Dengue serotype 2 New Guinea C (NGC) strain at MOI=0.1 with gentle agitation at 37° C. After 2 hours, cells were washed with serum-free media and suspended in 10% FCS-containing DMEM (Gibco, supplemented with sodium pyruvate, NEAA, Penicillin-Streptomycin). 10^5 cells were plated in triplicate in 96-well plates with compounds dispensed at graded doses (Hewlett-Packard D300 Digital Dispenser). All wells were normalized to 0.25% DMSO. At 48 hours, cells were washed with 1×PBS and all supernatants removed. Total RNA was extracted using RNEasy 96 plates (Qiagen) and used to generate first-strand cDNA using XLT cDNA 5× Supermix (QuantaBio). cDNA was used as a template in a Taqman qPCR duplex reaction specific to DENV2 viral and GAPDH gene expression. EC50 values were determined using Prism Graphpad software, with normalization to a positive control and no compound negative control wells.

[8] = HeLa, Table 5 comparative activity, 2',3'-OH vs -OC(O)iPr
[9] = Dengue virus, Huh-7, Table 5 comparative activity, 2',3'-OH vs -OC(O)iPr, read-out: DENV Huh7 EC50
[10] = human respiratory syncytial virus, NHBE, Table 5 comparative activity, 2',3'-OH vs -OC(O)iPr
[11] = Table 4, replicon cells, 3 days, read-out: HCV Rep 2A EC50
[12] = Table 4, replicon cells, 3 days, read-out: HCV Rep 1B EC50
[13] = Table 3, NHBE cells, RSV A2, 4 days

| Structure (SMILES) | EC50 [6, 8] [nM] | EC50 [7, 9] [nM] | EC50 [5, 10] [nM] | EC50 [1] [nM] | EC50 [3, 11] [nM] | EC50 [4, 12] [nM] | EC50 [5, 13] [nM] | also measured |
| --- | --- | --- | --- | --- | --- | --- | --- | --- |
| COC(=O)[C@H](C)N[P@](=O)(OC[C@@]1(C#N)O[C@@H](c2ccc3c(/N=C/N4CCN(C)CC4)ncnn23)[C@H](OC(=O)C(C)C)[C@@H]1OC(=O)C(C)C)Oc1ccccc1 [Example 261, (2R,3S,4S,5S)-2-cyano-2-((((S)-(((S)-1-methoxy-1-oxopropan-2-yl)amino)(phenoxy)phosphoryl)oxy)methyl)-5-(4-(((E)-(4-methylpiperazin-1-yl)methylene)amino)pyrrolo[2,1-f][1,2,4]triazin-7-yl)tetrahydrofuran-3,4-diyl bis(2-methylpropanoate)] |  |  |  |  |  |  |  | EC50 ([1]; human respiratory syncytial virus, HEp-2, 96 h): 42 nM; EC50 ([2]; Dengue virus, DENV2, Huh-7, 48 h, read-out: DENV-2 REP Huh7 EC50): 2340 nM; EC50 ([3]; Hepatitis C virus, 72 h, Table 4, replicon cells, 3 days, read-out: HCV Rep 2A EC50): 1220 nM; EC50 ([4]; Hepatitis C virus, 72 h, Table 4, replicon cells, 3 days, read-out: HCV Rep 1B EC50): 524 nM; EC50 ([5]; human respiratory syncytial virus, NHBE, 96 h, Table 3, NHBE cells, RSV A2, 4 days): 13 nM |
| CCOC(=O)[C@H](C)N[P@](=O)(OC[C@@]1(C#N)O[C@@H](c2ccc3c(N)ncnn23)[C@H](O)[C@@H]1O)Oc1ccccc1 [Example 29, Ethyl ((S)-(((2R,3S,4R,5S)-5-(4-aminopyrrolo[2,1-f][1,2,4]triazin-7-yl)-2-cyano-3,4-dihydroxytetrahydrofuran-2-yl)methoxy)(phenoxy)phosphoryl)-L-alaninate] | 678 | 1880 | 932 |  |  |  |  | EC50 ([2]; Dengue virus, DENV2, Huh-7, read-out: DENV Rep EC50): 36100 nM |
| CC(C)C(=O)O[C@H]1[C@H](c2ccc3c(N)ncnn23)O[C@](C#N)(COP(=O)(N[C@@H](C)C(=O)OC2COC2)Oc2ccccc2)[C@H]1OC(=O)C(C)C (single isomer, unassigned) [Example 185] |  |  |  | 26 | 730 | 217 |  |  |
| CC(C)C(=O)OC1C(c2ccc3c(N)ncnn23)OC(C#N)(COP(=O)(NC(C)C(=O)OC2CCN(C)C2)Oc2ccccc2)C1OC(=O)C(C)C (single isomer, unassigned) [Example 234] |  |  |  | 57 | 1820 | 905 | 30 |  |
| COC(=O)[C@H](C)N[P@](=O)(OC[C@@]1(C#N)O[C@@H](c2ccc3c(N)ncnn23)[C@H](O)[C@@H]1O)Oc1ccccc1 [Example 52, methyl ((S)-(((2R,3S,4R,5S)-5-(4-aminopyrrolo[2,1-f][1,2,4]triazin-7-yl)-2-cyano-3,4-dihydroxytetrahydrofuran-2-yl)methoxy)(phenoxy)phosphoryl)-L-alaninate] | 1250 | 5480 | 252 |  |  |  |  | EC50 ([3]; Hepatitis C virus, Table 5 comparative activity, 2',3'-OH vs -OC(O)iPr, read-out: HCV Rep2A EC50): 7460 nM; EC50 ([4]; Hepatitis C virus, Table 5 comparative activity, 2',3'-OH vs -OC(O)iPr, read-out: HCV Rep1B EC50): 3960 nM |
| CCC(=O)O[C@H]1[C@H](c2ccc3c(N)ncnn23)O[C@](C#N)(CO[P@](=O)(N[C@@H](C)C(=O)OCC2CC2)Oc2ccccc2)[C@H]1OC(=O)CC [Example 100] |  |  |  | 58 |  |  | 13 | EC50 ([6]; Table 3, H1-HeLa cells, 96 h): 147 nM; EC50 ([2]; Table 3, Huh-7 DENV2 replicon cells, 48 hours, read-out: DENV-2 REP Huh7 EC50): 18800 nM; EC50 ([7]; Table 3, Huh7 cells, 48 hours, read-out: DENV-2 Huh7 EC50): 1130 nM |
